Measured values from ChEMBL document CHEMBL4145686, “Discovery of a Potent and Selective Steroidal Glucocorticoid Receptor Antagonist (ORIC-101)” (J Med Chem, 2018).
pIC50: −log10 of the molar value.

How the values were obtained:
[1] = Cmax in rat at 5 mg/kg, po; type: ADME, organism-based; set-up: dose 5 mg/kg, route oral; details: in vivo
[2] = biological target: T1, Mineralocorticoid receptor (Homo sapiens, UniProt P08235); experiment: Antagonist activity at human MR expressed in CHO-K1 cells assessed as reduction in aldosterone-induced protein interaction between MR and its coactivator SRC at 5 uM incubated for 24 hrs by beta-galactosidase based chemiluminescence assay; type: cell-based; details: cho-k1, 24 h
T1 sequence (P08235 whole entry): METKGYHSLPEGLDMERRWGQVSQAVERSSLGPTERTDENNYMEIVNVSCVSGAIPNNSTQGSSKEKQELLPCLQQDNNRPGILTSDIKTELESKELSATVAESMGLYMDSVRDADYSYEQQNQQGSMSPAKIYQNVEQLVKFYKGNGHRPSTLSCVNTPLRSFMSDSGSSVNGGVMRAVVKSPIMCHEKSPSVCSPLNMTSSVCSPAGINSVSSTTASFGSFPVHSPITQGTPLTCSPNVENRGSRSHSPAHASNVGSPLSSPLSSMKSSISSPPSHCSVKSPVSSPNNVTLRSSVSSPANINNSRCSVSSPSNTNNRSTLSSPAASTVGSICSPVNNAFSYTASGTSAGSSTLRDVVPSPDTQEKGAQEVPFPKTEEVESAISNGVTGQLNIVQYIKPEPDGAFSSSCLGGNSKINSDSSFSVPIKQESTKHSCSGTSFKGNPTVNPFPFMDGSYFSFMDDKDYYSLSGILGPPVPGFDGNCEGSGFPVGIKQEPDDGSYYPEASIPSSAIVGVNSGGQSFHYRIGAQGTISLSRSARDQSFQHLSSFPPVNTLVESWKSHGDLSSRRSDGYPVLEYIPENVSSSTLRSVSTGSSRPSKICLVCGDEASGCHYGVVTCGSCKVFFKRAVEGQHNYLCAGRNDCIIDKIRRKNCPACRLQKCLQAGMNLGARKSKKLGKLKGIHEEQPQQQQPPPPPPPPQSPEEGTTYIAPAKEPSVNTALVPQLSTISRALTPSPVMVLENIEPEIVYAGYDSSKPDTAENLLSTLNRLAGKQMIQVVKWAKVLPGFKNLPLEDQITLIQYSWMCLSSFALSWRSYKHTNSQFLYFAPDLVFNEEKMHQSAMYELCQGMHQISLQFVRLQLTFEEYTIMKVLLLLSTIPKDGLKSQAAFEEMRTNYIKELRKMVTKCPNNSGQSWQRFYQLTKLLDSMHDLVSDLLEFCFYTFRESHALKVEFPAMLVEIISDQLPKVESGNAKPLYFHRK

[3] = biological target: T2, Androgen receptor (Homo sapiens, UniProt P10275); experiment: Agonist activity at AR in human LNAR cells assessed as increase in TMPRSS2 gene expression at 100 nM incubated for 24 hrs by RT-qPCR method; type: cell-based; details: 0.1 µM
T2 sequence (P10275 whole entry): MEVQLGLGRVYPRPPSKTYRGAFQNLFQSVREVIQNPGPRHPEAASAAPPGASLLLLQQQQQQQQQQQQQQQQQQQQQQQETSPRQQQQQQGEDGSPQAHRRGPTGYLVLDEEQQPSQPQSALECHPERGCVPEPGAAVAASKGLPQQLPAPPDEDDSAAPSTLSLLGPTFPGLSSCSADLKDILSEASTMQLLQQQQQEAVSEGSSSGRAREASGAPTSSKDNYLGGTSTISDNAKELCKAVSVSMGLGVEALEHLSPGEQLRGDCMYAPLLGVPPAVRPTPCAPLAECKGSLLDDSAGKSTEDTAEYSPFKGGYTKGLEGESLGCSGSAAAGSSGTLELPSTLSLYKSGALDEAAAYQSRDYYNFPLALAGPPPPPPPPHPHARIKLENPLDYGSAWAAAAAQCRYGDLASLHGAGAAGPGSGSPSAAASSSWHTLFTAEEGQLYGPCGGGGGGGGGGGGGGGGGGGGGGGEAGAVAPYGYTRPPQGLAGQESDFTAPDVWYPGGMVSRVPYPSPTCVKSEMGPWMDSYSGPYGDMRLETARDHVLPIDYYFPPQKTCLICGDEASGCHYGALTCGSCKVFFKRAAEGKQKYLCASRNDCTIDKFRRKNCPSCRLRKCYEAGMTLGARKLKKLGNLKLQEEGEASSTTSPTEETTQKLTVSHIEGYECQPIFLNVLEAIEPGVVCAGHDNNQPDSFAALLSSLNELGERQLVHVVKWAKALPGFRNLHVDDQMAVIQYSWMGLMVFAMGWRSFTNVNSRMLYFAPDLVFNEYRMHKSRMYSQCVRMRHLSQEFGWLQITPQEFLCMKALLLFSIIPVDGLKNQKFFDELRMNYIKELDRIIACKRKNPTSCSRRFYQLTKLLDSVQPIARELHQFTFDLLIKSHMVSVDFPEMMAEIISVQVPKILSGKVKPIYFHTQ

[4] = Clearance in mini pig at 0.5 mg/kg, iv; type: ADME, organism-based, Sus scrofa; details: in vivo
[5] = biological target: T3, Glucocorticoid receptor (Rattus norvegicus, UniProt P06536); experiment: Antagonist activity at GR in rat PBMC assessed as reduction in dexamethasone-induced FKBP5 gene expression incubated for 24 hrs by RT-qPCR method; type: cell-based
T3 sequence (P06536 whole entry): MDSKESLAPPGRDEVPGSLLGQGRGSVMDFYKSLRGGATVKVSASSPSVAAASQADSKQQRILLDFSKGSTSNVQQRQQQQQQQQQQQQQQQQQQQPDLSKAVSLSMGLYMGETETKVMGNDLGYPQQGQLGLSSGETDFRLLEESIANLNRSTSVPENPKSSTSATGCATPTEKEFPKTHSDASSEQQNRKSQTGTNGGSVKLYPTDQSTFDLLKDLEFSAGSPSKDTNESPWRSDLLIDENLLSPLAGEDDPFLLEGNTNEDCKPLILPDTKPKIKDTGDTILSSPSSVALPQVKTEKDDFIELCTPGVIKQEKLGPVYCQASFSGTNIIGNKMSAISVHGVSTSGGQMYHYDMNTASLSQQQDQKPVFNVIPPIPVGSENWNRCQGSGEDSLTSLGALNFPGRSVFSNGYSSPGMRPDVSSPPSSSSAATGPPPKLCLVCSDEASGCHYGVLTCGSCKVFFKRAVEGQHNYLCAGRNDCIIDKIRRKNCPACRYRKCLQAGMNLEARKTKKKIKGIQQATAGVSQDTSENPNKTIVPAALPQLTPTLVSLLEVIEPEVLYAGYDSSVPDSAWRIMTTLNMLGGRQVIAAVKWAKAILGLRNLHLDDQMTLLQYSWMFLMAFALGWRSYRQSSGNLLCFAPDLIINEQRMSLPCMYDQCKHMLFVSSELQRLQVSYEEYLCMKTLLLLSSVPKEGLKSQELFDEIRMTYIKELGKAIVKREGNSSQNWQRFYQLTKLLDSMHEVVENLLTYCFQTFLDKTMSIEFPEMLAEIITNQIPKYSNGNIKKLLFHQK

## CC(C)N(C)c1ccc([C@H]2C[C@@]3(C)[C@@H](CC[C@@]3(O)C#CC(C)(C)C)[C@@H]3CCC4=CC(=O)CC[C@@H]4[C@H]32)cc1
[1]
  Cmax: 149 ng/mL
[2]
  inhibition (INH): Not Active
[3]
  Activity: Not Active
[4]
  clearance: 18.3 mL/min/kg
[5]
  pIC50: 7.34
